In patent US5714666A, “Measurement of intracellular calcium using bioluminescent apoaequorin expressed in mammalian cells” (Children's Hospital of Philadelphia, priority 1995, dated 1998):

Tests used:
Type in all cases: cell-based
[1] = system: human 293 cells; assay: Aequorin expression assay in human 293 cells transfected with a single plasmid (pDPaqneo3, pDP5ht2neo3 or pDP3 vector)
Experimental: Human 293 cells were cultured on 100 mm tissue culture dish in minimum essential medium (MEM) containing 10% charcoal treated fetal bovine serum, 2 mM L-glutamine, 100 units penicillin G sodium per ml, 100 units streptomycin sulfate per ml. DNA mediated transfection was performed when these cells grew to 70% to 80% confluence on the plates. These transfected cells were incubated in 3% CO2, 37° C. incubator overnight. Cells were replenished with fresh medium and transferred to 5% CO2, 37° C. incubator the next day [C. […] (17).
Two days after the transfection, cells were washed twice with phosphate buffered saline (PBS). Cells were then harvested by ice-cold PBS and rubber policeman. After centrifugation at 1,600 r.p.m. for 5 minutes, the pellet was dissolved in Ca^++ -free AqH buffer (120 mM NaCl, 4.8 mM KCl, 1.2 mM KH2 PO4, 25 mM Hepes, 0.1% bovine serum albumin, pH 7.4) at a concentration about 10 million cells per 1 ml solution. Tubes containing cells were wrapped with aluminum foil. Coelenterazine was a generous gift from Dr. Kishi, Harvard University and Dr. Shimomura, Marine Biological Laboratory. It was stored at -70° C., dissolved in methanol immediately before use, and kept in the dark at all times. […] Aequorin was reconstituted incubating these apoaequorin cDNA transfected cells with 10 μM coelenterazine in the dark room temperature for 30 minutes. Unincorporated coelenterazine was washed away after incubation by adding 25 ml Ca^++ -free AqH buffer to each sample and centrifugating at 1,600 r.p.m. Samples were centrifuged again and pellets of 293 cells were dissolved in Ca^++ -free AqH buffer. The final concentration of cells was approximately 10 million per 1 ml solution. For light emission measurement, 100 μl of cell sample was mixed with equal volume of appropriate reagent in a 2 ml glass tube immediately before inserted into the luminometer (Berthold Biolumat LB 9500). Counting of light emission started immediately after the glass tube insertion. The number of photons emitted during the first 30 seconds was integrated by the luminometer and shown on the screen. The time course of light emission was recorded on a chart recorder and a Mackintosh computer using the MacLab Chart/4 V3.1.3 program for further analysis.

[2] = system: mouse primary neuron culture; assay: Photon emission of primary neuron cultures from apoaequorin transgenic mice
Experimental: A transgenic mouse was mated with non-transgenic mouse B6XSJLF1 female mouse. The whole brains were removed from 19 day old mouse embryos and used to make primary neuronal cultures and incubated in minimum essential medium containing 500 μg genticin per ml. After ten days, cells were removed from plates, mixed with colenterazine and tested for aequorin expression using an expression assay.
Embryos resulting from mating transgenic mouse no.
Thereafter 10 μl (1 mg/ml PBS) Br-A23187 and 0.5 mM CaCl2 were added to the cell culture. The drug Br-A23187 opens calcium channels.

[3] = target: T1, 5-HT2 receptor (Rattus norvegicus, UniProt P14842); assay: Aequorin light emission assay in human 293 cells co-transfected with apoaequorin cDNA and 5-HT2 cDNA; details: for Antagonist inhibition of light emission in response to serotonin: 50 μM antagonist, 30 seconds before 10 μM serotonin, FIG. 2
T1 construct: expressed in transfected cells; host or cells: human 293 cells, transiently co-transfected with pDPaqneo3 (apoaequorin) and pDP5ht2neo3
Experimental: DNA from the apoaequorin plasmid (pDPaqneo3) and the 5-HT2 plasmid (pDPSht2neo3) were mixed in equal portions in the transfection solution immediately before transfection. Transfection was performed as described in Example 2.
Two days after the transfection, cells were washed twice with phosphate buffered saline (PBS). Cells were then harvested by ice-cold PBS and rubber policeman. After centrifugation at 1,600 r.p.m. for 5 minutes, the pellet was dissolved in Ca^++ -free AqH buffer (120 mM NaCl, 4.8 mM KCl, 1.2 mM KH2 PO4, 25 mM Hepes, 0.1% bovine serum albumin, pH 7.4) at a concentration about 10 million cells per 1 ml solution. Tubes containing cells were wrapped with aluminum foil. Coelenterazine was a generous gift from Dr. Kishi, Harvard University and Dr. Shimomura, Marine Biological Laboratory. It was stored at -70° C., dissolved in methanol immediately before use, and kept in the dark at all times. The concentration of coelenterazine was estimated by the measurement of absorbance at 434 nanometer [the molar absorptivity434 =8,900 M^-1·cm^-1; K. Hori, H. Charbonneau, R. C. Hart, M. J. Cormier, Proc. Natl. Acad. Sci. U.S.A. 74, 4285 (1977)]. Aequorin was reconstituted incubating these apoaequorin cDNA transfected cells with 10 μM coelenterazine in the dark room temperature for 30 minutes. Unincorporated coelenterazine was washed away after incubation by adding 25 ml Ca^++ -free AqH buffer to each sample and centrifugating at 1,600 r.p.m. Samples were centrifuged again and pellets of 293 cells were dissolved in Ca^++ -free AqH buffer. The final concentration of cells was approximately 10 million per 1 ml solution. For light emission measurement, 100 μl of cell sample was mixed with equal volume of appropriate reagent in a 2 ml glass tube immediately before inserted into the luminometer (Berthold Biolumat LB 9500). Counting of light emission started immediately after the glass tube insertion. The number of photons emitted during the first 30 seconds was integrated by the luminometer and shown on the screen. The time course of light emission was recorded on a chart recorder and a Mackintosh computer using the MacLab Chart/4 V3.1.3 program for further analysis.
Intracellular calcium concentration was measured as described in Example 15.

T1 sequence (P14842 whole entry): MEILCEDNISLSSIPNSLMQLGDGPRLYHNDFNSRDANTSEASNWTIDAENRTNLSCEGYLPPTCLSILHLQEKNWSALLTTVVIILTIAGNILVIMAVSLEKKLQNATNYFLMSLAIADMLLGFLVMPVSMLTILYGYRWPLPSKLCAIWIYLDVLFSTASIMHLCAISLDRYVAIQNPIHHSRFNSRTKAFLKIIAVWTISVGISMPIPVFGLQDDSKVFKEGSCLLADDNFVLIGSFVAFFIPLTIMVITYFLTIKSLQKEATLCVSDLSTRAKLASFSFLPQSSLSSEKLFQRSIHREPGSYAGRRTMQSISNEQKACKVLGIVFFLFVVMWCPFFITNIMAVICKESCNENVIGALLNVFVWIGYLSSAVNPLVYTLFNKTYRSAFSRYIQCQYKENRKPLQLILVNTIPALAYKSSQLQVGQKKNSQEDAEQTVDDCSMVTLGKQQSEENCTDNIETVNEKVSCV

## O=C(O)CN(CCN(CC(=O)O)CC(=O)O)CC(=O)O [EDTA]
[1]; EDTA added to buffer, pDPaqneo3-transfected cells (data not shown)
  Effect on Ca++ induced photon emission: prevented the increase in photon emission

## Br-A23187
[2]; 10 μl (1 mg/ml PBS) Br-A23187 with 0.5 mM CaCl2, culture from transgenic mouse no. 20, FIG. 6A
  Photon emission (excitotoxicity): increased excitotoxicity
[2]; Br-A23187 with 0.5 mM CaCl2 and 50 mM EGTA, culture from transgenic mouse no. 20, FIG. 6B
  Photon emission (excitotoxicity): increased excitotoxicity

## NCCc1c[nH]c2ccc(O)cc12 [serotonin]
[3]; cells co-transfected with pDPaqneo3 and pDP5ht2neo3
  Photon emission upon addition of serotonin: dramatic rise in photon emission
[3]; cells transfected with pDPaqneo3 & pDP5ht2neo3, 500 nM, first 30 seconds
  Detected photons: 79,840 ± 3,342 photons
[3]; saturating concentration (500 μM)
  Photon emissions per cell: ≤ 40 photons per cell
[1]; cells transfected with pDP3 vector only, 500 nM
  Detected photons: 1,599 photons
[1]; cells transfected with pDP5ht2neo3 only, 500 nM
  Detected photons: 1,308 ± 339 photons
[1]; cells transfected with pDPaqneo3 only, pDP5ht2neo3 only or pDP3 vector only
  Photon emission upon serotonin treatment: no increase of photo emission
[1]; cells transfected with pDPaqneo3 only, 500 nM
  Detected photons: 6,150 photons

## [Ca+2].[Cl-].[Cl-] [Ca^++, CaCl2]
[1]; cells transfected with pDP3 vector only, 50 nM Ca++
  Detected photons: 1,607 photons
[1]; cells transfected with pDP5ht2neo3 only, 50 nM Ca++
  Detected photons: 1,346 ± 167 photons
[1]; cells transfected with pDPaqneo3 and incubated with coelenterazine cofactor
  Photons detected upon addition of Ca++: rapid and dramatic increase in the photons detected
[1]; cells transfected with pDPaqneo3 only, 50 nM Ca++
  Detected photons: 293,209 photons
[1]; cells transfected with plasmids not containing apoaequorin cDNA and untransfected cells
  Emission of photons upon addition of Ca++: no rise in the emission of photons
[1]; pDPaqneo3 transfected cells not incubated with coelenterazine cofactor
  Light emission upon addition of Ca++: no increase of light emission
[2]; 100 μl of 100 mM CaCl2, control non-transgenic neuronal culture no. 6, FIG. 5B
  Photon emission (excitotoxicity): no excitotoxic effect
[2]; 100 μl of 100 mM CaCl2, culture from transgenic mouse no. 2, FIG. 5A
  Photon emission (excitotoxicity): increase in cell excitotoxicity

## O=C(c1ccc(F)cc1)C1CCN(CCn2c(=O)[nH]c3ccccc3c2=O)CC1 [ketanserin]
[3]
  Antagonist inhibition of light emission in response to serotonin: inhibited

## CN(C)CCCSc1ccccc1NC(=O)/C=C/c1ccccc1 [cinanserin]
[3]
  Antagonist inhibition of light emission in response to serotonin: inhibited
